Assay results: BindingDB's records for doi:10.7270/Q2R78CMH (Sanford-Burnham Center for Chemical Genomics, 2008)

Target: T1, Bcl-2-like protein 10 (Homo sapiens, UniProt Q9HD36)
T1 sequence (Q9HD36 whole entry): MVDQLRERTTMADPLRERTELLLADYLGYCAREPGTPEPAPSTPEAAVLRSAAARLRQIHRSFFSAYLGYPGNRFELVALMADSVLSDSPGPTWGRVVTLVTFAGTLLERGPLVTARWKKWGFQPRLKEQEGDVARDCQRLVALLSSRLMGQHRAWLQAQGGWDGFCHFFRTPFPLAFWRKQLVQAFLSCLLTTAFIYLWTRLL
Assay: Biochemical fluorescence polarization EC50 measurement of human Bcl-2-like protein 10 inhibition, TR3-derived (AID 1243)

Compound	EC50 [µM]
O=C1c2ccccc2C(O)C12N=Nc1n[nH]c(=S)n1N2 (stereo unspecified) [BIM-0026580.P001]	23.8
C=c1c(C#N)c2[nH]c(N)c(C#N)c(C)c-2c1=Cc1ccc(-c2ccc(C(=O)O)c(Cl)c2)o1	1.65
O=C1C=CC(=O)C(C(C=NCc2ccccc2)[N+](=O)[O-])=C1 (stereo unspecified) [BIM-0048185.P001]	5.7
Clc1ccc(C2CC(c3ccccc3)=Nc3ncnn32)cc1 (stereo unspecified) [7-(4-chlorophenyl)-5-phenyl-1,7-dihydro-[1,2,4]triazolo[1,5-a]pyrimidine]	14.2
O=C(O)c1cccc(-c2ccc(CN=Nc3ccc([N+](=O)[O-])cn3)o2)c1	9.64
COc1ccccc1NC(=O)C1=C(C)N=C(SCC(=O)c2ccc(Br)cc2)C(C#N)C1c1ccco1 (stereo unspecified) [BIM-0025022.P001]	6.24
